Values joined by “and” are separate entries in the source; they are usually repeats but may differ in a detail not shown here. Equal values may be shown once. Read-outs that look alike come from different tables or passages of the source.
Columns and labels:
Suit2-07 cells = assay: Cell proliferation assay, GEM + ATR inhibitor (Incucyte confluence, 72 h); type: cell-based, human; settings: Suit2-07; for EC50: Homo sapiens, 72 h, experiment ATRi (ATR inhibitor alone); for Response: R1; for Curve top: plateau of fitted curve, ratio drug/vehicle confluence;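 for all read-outs here: Suit2-07 cells grown in 96-well plates at 37 °C, 5% CO2, raw 72 h confluence taken without normalizing to starting confluence, each experiment done in triplicate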
Method: (§1) Cells were seeded at 5000 cells/well into 96-well flat bottom plates (Eppendorf) and allowed to attach overnight. […] Cells were incubated for 72 h at 37 °C and 5% CO2. Cell confluence readouts at 72 h were either normalized to their initial confluence using the Incucyte software (AsPC-1) or used without prior normalization (all others). […] Each experiment was performed in triplicates, the data was plotted as mean ± standard deviation (s.d.).

PANC-1 cells = assay: as above; settings: for EC50: Homo sapiens, mean of replicates; for Curve top: PANC-1, plateau of fitted curve, ratio drug/vehicle confluence;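 for EC50: in combination experiments GEM is titrated while ATRi is held at a fixed sub-EC50 dose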;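 for all read-outs here: PANC-1 confluence at 72 h taken as raw values, not normalized to starting confluence, with each experiment run in triplicate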
Method: as §1

Compound `C[C@@H]1COCCN1c1cc(C2([S@](C)(=N)=O)CC2)nc(-c2cc[nH]c3nccc2-3)n1` [Ceralasertib] has an EC50 (Suit2-07 cells; -log10 of EC50 [M], read-out: pEC50 (converted)) of 3.24e-06 M, an EC50 (Suit2-07 cells; mean (one replicate), read-out: EC50 mean) of 3.24e-06 M and an EC50 (Suit2-07 cells; replicate R1, read-out: EC50) of 3.24e-06 M. The Response (Suit2-07 cells; GEM+ATRi_dose1, GEM 0 nM + ATRi 10 nM, in % (unit assumed)) was 99.44, the Response (Suit2-07 cells; GEM+ATRi_dose1, GEM 1 nM + ATRi 10 nM, in % (unit assumed)) was 97.06 and the Response (Suit2-07 cells; GEM+ATRi_dose1, GEM 3 nM + ATRi 10 nM, in % (unit assumed)) was 98.33. For the same compound, the Response (Suit2-07 cells; GEM+ATRi_dose1, GEM 10 nM + ATRi 10 nM, in % (unit assumed)) was 33.90, the Response (Suit2-07 cells; GEM+ATRi_dose1, GEM 30 nM + ATRi 10 nM, in % (unit assumed)) was 18.26 and the Response (Suit2-07 cells; GEM+ATRi_dose1, GEM 100 nM + ATRi 10 nM, in % (unit assumed)) was 14.84. For the same compound, the Response (Suit2-07 cells; GEM+ATRi_dose1, GEM 300 nM + ATRi 10 nM, in % (unit assumed)) was 14.60, the Response (Suit2-07 cells; GEM+ATRi_dose1, GEM 1000 nM + ATRi 10 nM, in % (unit assumed)) was 10.84 and the Response (Suit2-07 cells; GEM+ATRi_dose1, GEM 3000 nM + ATRi 10 nM, in % (unit assumed)) was 13.52. The Response (Suit2-07 cells; GEM+ATRi_dose2, GEM 0 nM + ATRi 3 nM, in % (unit assumed)) was 99.06, the Response (Suit2-07 cells; GEM+ATRi_dose2, GEM 1 nM + ATRi 3 nM, in % (unit assumed)) was 97.53 and the Response (Suit2-07 cells; GEM+ATRi_dose2, GEM 3 nM + ATRi 3 nM, in % (unit assumed)) was 42.89. The Response (Suit2-07 cells; GEM+ATRi_dose2, GEM 10 nM + ATRi 3 nM, in % (unit assumed)) was 18.83, the Response (Suit2-07 cells; GEM+ATRi_dose2, GEM 30 nM + ATRi 3 nM, in % (unit assumed)) was 15.03 and the Response (Suit2-07 cells; GEM+ATRi_dose2, GEM 100 nM + ATRi 3 nM, in % (unit assumed)) was 14.03. For the same compound, the Response (Suit2-07 cells; GEM+ATRi_dose2, GEM 300 nM + ATRi 3 nM, in % (unit assumed)) was 10.54, the Response (Suit2-07 cells; GEM+ATRi_dose2, GEM 1000 nM + ATRi 3 nM, in % (unit assumed)) was 10.54 and the Response (Suit2-07 cells; GEM+ATRi_dose2, GEM 3000 nM + ATRi 3 nM, in % (unit assumed)) was 14.48. The Response (Suit2-07 cells; GEM+ATRi_dose3, GEM 0 nM + ATRi 30 nM, in % (unit assumed)) was 99.04, the Response (Suit2-07 cells; GEM+ATRi_dose3, GEM 1 nM + ATRi 30 nM, in % (unit assumed)) was 98.92 and the Response (Suit2-07 cells; GEM+ATRi_dose3, GEM 3 nM + ATRi 30 nM, in % (unit assumed)) was 74.44. It also gave a Response (Suit2-07 cells; GEM+ATRi_dose3, GEM 10 nM + ATRi 30 nM, in % (unit assumed)) of 18.78, a Response (Suit2-07 cells; GEM+ATRi_dose3, GEM 30 nM + ATRi 30 nM) of 15.93 and a Response (Suit2-07 cells; GEM+ATRi_dose3, GEM 100 nM + ATRi 30 nM, in % (unit assumed)) of 13.11. It also gave a Response (Suit2-07 cells; GEM+ATRi_dose3, GEM 300 nM + ATRi 30 nM, in % (unit assumed)) of 12.75, a Response (Suit2-07 cells; GEM+ATRi_dose3, GEM 1000 nM + ATRi 30 nM, in % (unit assumed)) of 9.23 and a Response (Suit2-07 cells; GEM+ATRi_dose3, GEM 3000 nM + ATRi 30 nM, in % (unit assumed)) of 13.00. For the same compound, the Response (Suit2-07 cells; experiment ATRi, ATRi 3 nM, GEM 0 nM, in % (unit assumed)) was 99.07, the Response (Suit2-07 cells; experiment ATRi, ATRi 10 nM, GEM 0 nM, in % (unit assumed)) was 99.08 and the Response (Suit2-07 cells; experiment ATRi, ATRi 30 nM, GEM 0 nM, in % (unit assumed)) was 98.55. The Response (Suit2-07 cells; experiment ATRi, ATRi 100 nM, GEM 0 nM, in % (unit assumed)) was 98.02, the Response (Suit2-07 cells; experiment ATRi, ATRi 300 nM, GEM 0 nM, in % (unit assumed)) was 95.91 and the Response (Suit2-07 cells; experiment ATRi, ATRi 1000 nM, GEM 0 nM, in % (unit assumed)) was 89.97. It also gave a Response (Suit2-07 cells; experiment ATRi, ATRi 3000 nM, GEM 0 nM, in % (unit assumed)) of 57.79, a Response (Suit2-07 cells; experiment ATRi, ATRi 10000 nM, GEM 0 nM, in % (unit assumed)) of 20.77 and a Curve top (Suit2-07 cells; experiment GEM+ATRi_dose1) of 0.15. For the same compound, the Curve top (Suit2-07 cells; experiment GEM+ATRi_dose2) was 0.14, the Curve top (Suit2-07 cells; experiment GEM+ATRi_dose3) was 0.13 and the EC50 (PANC-1 cells; PANC-1, 72 h, read-out: EC50 mean [nM], PANC-1, experiment ATRi (ATR inhibitor alone)) was 10500 nM. It also gave an EC50 (PANC-1 cells; PANC-1, read-out: EC50 mean [nM], PANC-1, experiment ATRi (ATR inhibitor alone)) of 10500 nM, an EC50 (PANC-1 cells; PANC-1, read-out: EC50 mean [nM], PANC-1, experiment GEM+ATRi_dose1) of 12 nM and an EC50 (PANC-1 cells; PANC-1, read-out: EC50 mean [nM], PANC-1, experiment GEM+ATRi_dose2) of 22 nM. For the same compound, the EC50 (PANC-1 cells; PANC-1, read-out: EC50 mean [nM], PANC-1, experiment GEM+ATRi_dose3) was 14.5 nM, the Curve top (PANC-1 cells; experiment GEM+ATRi_dose1) was 0.75 and 0.55 and 0.69 and the Curve top (PANC-1 cells; experiment GEM+ATRi_dose2) was 0.69 and 0.59 and 0.62. For the same compound, the Curve top (PANC-1 cells; experiment GEM+ATRi_dose3) was 0.55 and 0.43 and 0.50.

Source: paper PMC11876601 (Molecular Systems Biology, 2025)
